We go through 14 compounds from ChEMBL document CHEMBL3085736, “Identification of sulfonic acids as efficient ecto-5'-nucleotidase inhibitors” (Eur J Med Chem, 2013).

A value given as a limit tells only on which side of the number the result lay.

Series [1] has as its target T1, 5'-nucleotidase (Homo sapiens, UniProt P21589). The experiment in a line: Inhibition of human recombinant ecto-5'-nucleotidase expressed in african green monkey COS7 cells using adenosine monophosphate as substrate preincubated for 10 mins before substrate addition measured after 10 mins by capillary electrophoresis. In kind it is cell-based, COS-7.
The next series relates to HCEC. Nature of the series: Cytotoxicity against HCEC after 24 hrs by sulforhodamine B assay. The format is cell-based. The settings on record: human. In general terms: Sulforhodamine B stains cellular protein and so reports cell mass.
In series [2] the target is T2, 5'-nucleotidase (Rattus norvegicus) (UniProt P21588).
T2 sequence (whole entry): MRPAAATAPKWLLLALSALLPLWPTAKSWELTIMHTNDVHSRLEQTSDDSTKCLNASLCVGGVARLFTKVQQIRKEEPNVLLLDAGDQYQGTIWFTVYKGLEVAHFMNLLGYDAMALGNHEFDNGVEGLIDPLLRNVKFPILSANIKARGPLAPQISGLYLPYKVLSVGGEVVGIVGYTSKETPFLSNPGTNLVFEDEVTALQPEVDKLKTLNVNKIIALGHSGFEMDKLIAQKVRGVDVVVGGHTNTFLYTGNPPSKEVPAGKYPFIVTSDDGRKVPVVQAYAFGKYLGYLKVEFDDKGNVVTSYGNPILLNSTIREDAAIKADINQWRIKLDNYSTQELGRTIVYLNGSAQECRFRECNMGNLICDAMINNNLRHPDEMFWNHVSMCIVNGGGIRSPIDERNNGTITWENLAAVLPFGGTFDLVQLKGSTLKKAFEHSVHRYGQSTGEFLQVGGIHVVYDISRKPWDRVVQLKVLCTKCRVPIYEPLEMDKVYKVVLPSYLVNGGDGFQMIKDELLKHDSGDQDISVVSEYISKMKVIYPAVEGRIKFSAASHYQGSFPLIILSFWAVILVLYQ
The experiment in a line: Inhibition of rat recombinant ecto-5'-nucleotidase expressed in african green monkey COS7 cells using adenosine monophosphate as substrate at 1 mM preincubated for 10 mins before substrate addition measured after 10 mins by capillary electrophoresis. In kind it is cell-based. The following applies: COS-7.

The test system of series [3] is NCI-H157. Nature of the series: Cytotoxicity against human NCI-H157 cells at 100 uM after 24 hrs by sulforhodamine B assay. The format is functional.
Series [4] concerns the target T3, 5'-nucleotidase (Rattus norvegicus, UniProt P21588).
T3 sequence (P21588 whole entry): T2 sequence (whole entry)
Nature of the series: Inhibition of rat recombinant ecto-5'-nucleotidase expressed in african green monkey COS7 cells using adenosine monophosphate as substrate preincubated for 10 mins before substrate addition measured after 10 mins by capillary electrophoresis. The format is cell-based, COS-7.

Series [5] addresses T1, 5'-nucleotidase. Nature of the series: Inhibition of human recombinant ecto-5'-nucleotidase expressed in african green monkey COS7 cells using adenosine monophosphate as substrate at 1 mM preincubated for 10 mins before substrate addition measured after 10 mins by capillary electrophoresis. The settings on record: COS-7. In kind it is cell-based.
The test system of series [6] is NCI-H157. Nature of the series: Cytotoxicity against human NCI-H157 cells at 10 uM after 24 hrs by sulforhodamine B assay. The format is functional.

T1 sequence (P21589 whole entry): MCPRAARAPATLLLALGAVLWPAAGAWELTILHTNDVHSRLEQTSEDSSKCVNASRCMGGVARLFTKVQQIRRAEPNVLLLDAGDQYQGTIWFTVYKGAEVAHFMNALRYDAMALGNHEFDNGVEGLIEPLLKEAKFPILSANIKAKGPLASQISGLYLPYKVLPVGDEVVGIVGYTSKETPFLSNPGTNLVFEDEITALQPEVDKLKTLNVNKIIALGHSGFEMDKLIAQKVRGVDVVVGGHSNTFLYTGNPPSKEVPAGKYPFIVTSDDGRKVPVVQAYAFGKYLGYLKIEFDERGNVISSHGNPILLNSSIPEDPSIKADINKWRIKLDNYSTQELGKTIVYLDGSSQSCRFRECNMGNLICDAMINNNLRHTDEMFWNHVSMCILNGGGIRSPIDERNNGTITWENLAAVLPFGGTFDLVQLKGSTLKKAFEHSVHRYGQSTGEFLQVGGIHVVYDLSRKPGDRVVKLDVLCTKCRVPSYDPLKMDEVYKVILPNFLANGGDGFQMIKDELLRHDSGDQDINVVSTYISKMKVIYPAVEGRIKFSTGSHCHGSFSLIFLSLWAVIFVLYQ

In general, IC50 refers to the concentration that inhibits the measured activity by half. As a reminder, the inhibition is the change of the read-out against control, counted positive when it falls. With `NC(=O)Nc1ccc2cc(S(=O)(=O)O)cc(O)c2c1`, on 5'-nucleotidase [1], the IC50 was 30.5 µM. For the same compound, the Activity entry in the series with HCEC is recorded as “Non-toxic”; with NCI-H157 [3] it was under 40%. For the same compound, the inhibition in series [2] amounted to 40%.
Consider `Cc1ccc2nc(-c3ccc(N)cc3)sc2c1S(=O)(=O)O`, for which the results for the IC50 at 5'-nucleotidase [1] and at 5'-nucleotidase [4] were 13.5 µM and 18.6 µM, respectively. The Activity result was “Non-toxic” with HCEC and under 40% in the series with NCI-H157 [3].
The matching figures for `Nc1ccc(Nc2ccc([N+](=O)[O-])cc2)c(S(=O)(=O)O)c1`: 47.6 µM, 72.9 µM, “Non-toxic” and 42%.
As for `Nc1ccc2cc(S(=O)(=O)O)cc(O)c2c1`, the IC50 was 1.32 µM on 5'-nucleotidase [1] and 10.4 µM at 5'-nucleotidase [4]. In addition, the values for the Activity entry in the series with HCEC and in the series on NCI-H157 [3] were “Non-toxic” and under 40%, respectively.
As to `Nc1ccc(S(=O)(=O)O)c2ccccc12`, the Activity entry is “Non-toxic” with HCEC and under 40% with NCI-H157 [3]. For the same compound, the inhibition was 43% at 5'-nucleotidase [5] and 28% in series [2].
Regarding `Nc1cc(S(=O)(=O)O)cc2cc(S(=O)(=O)O)cc(O)c12`, the IC50 at 5'-nucleotidase [1] amounted to 21.8 µM; on 5'-nucleotidase [4] it was 76.6 µM. Moreover, the Activity entry in the series on HCEC is “Non-toxic”; in the series with NCI-H157 [3], under 40%.
With `CC1=NN(c2ccccc2)C(=O)C1` [EDARAVONE], the Activity entry with HCEC is reported as “Non-toxic”; with NCI-H157 [6], 40%; with NCI-H157 [3] it was 70%. In addition, the inhibition at 5'-nucleotidase [5] was 15%; in series [2], 29%.
For the compound `NS(=O)(=O)O` [SULFAMATE], the values for the IC50 on 5'-nucleotidase [1] and at 5'-nucleotidase [4] were 42.1 µM and 77.3 µM, respectively. The Activity entry in the series on HCEC was “Non-toxic”; with NCI-H157 [3], under 40%.
As for `Nc1c(O)cc(S(=O)(=O)O)c2cc([N+](=O)[O-])ccc12`, the IC50 at 5'-nucleotidase [1] stood at 41 µM; on 5'-nucleotidase [4] it was 31.6 µM. Besides, the Activity result in the series on HCEC was “Non-toxic”; with NCI-H157 [3], under 40%.
For the compound `Nc1ccc(S(=O)(=O)O)cc1`, the 50% inhibitory concentration (IC50) turned out to be 8.2 µM on 5'-nucleotidase [1] and 70.1 µM on 5'-nucleotidase [4]. Besides, the Activity entry with HCEC is “Non-toxic”; in the series on NCI-H157 [3], under 40%.
With `Nc1c(S(=O)(=O)O)cc(Br)c2c1C(=O)c1ccccc1C2=O`, the Activity result with HCEC is reported as “Non-toxic”; with NCI-H157 [3] it was under 40%. Moreover, the inhibition was 4% on 5'-nucleotidase [5] and 27% in series [2].
In the series on NCI-H157 [3], `CC[C@]1(O)C[C@H]2CN(CCc3c([nH]c4ccccc34)[C@@](C(=O)OC)(c3cc4c(cc3OC)N(C=O)[C@H]3[C@@](O)(C(=O)OC)[C@H](OC(C)=O)[C@]5(CC)C=CCN6CC[C@]43[C@@H]65)C2)C1` [VINCRISTINE] gave an Activity of 47%.
For the compound `Nc1cc(S(=O)(=O)[O-])cc2ccccc12.[Na+]`, the Activity result in the series on HCEC is on record as “Non-toxic”; in the series on NCI-H157 [3], 48%. Also, the inhibition came out at 35% at 5'-nucleotidase [5] and 20% in series [2].
Turning to `CC1=NN(c2ccc(S(=O)(=O)O)cc2)C(=O)C1`, the IC50 on 5'-nucleotidase [1] is 6.1 µM; on 5'-nucleotidase [4] it was 44.3 µM. Also, the Activity entry was “Non-toxic” with HCEC, 40% in the series with NCI-H157 [6] and 72% in the series on NCI-H157 [3].
